SMILES strings stand for the structures.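 Step 1: Grow cells in 96-well plates. Step 2: Expose to compound for 48 hours at 5 concentrations. Step 3: Interpolate endpoints linearly; if unreached, use highest concentration. GI50 marks 50% less growth. TGI denotes the concentration required for complete inhibition of growth.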

Test systems include LXFL 529 NSCLC; SK-MEL-28 melanoma; M19-MEL melanoma; OVCAR-3 ovarian; RXF 393 renal; SK-MEL-5 melanoma; SF-268 CNS; NCI-H226 lung; T-47D breast; NCI/ADR-RES ovarian.
Common to all, as to experiment: growth of human tumour cells (NCI), 48 h

Take `CCCCOC(=O)NC(=O)c1cn(CCSCCOC(=O)NCCCCCCNC(=O)OCCSCCn2cc(C(=O)NC(=O)OCCCC)c(=O)[nH]c2=O)c(=O)[nH]c1=O`: the TGI in the assay with LXFL 529 NSCLC, in the assay with SK-MEL-28 melanoma, with M19-MEL melanoma, in the assay with OVCAR-3 ovarian, in the assay with RXF 393 renal and with SK-MEL-5 melanoma was greater than 100 µM each time. This molecule also showed a TGI in the assay on SF-268 CNS greater than 100 µM.
Consider `COc1cc2c(cc1O)CC13CCC(=O)N1CCc1cc(OC)c(O)c-2c13` (centres undefined), for which the TGI with LXFL 529 NSCLC, in the assay on SK-MEL-28 melanoma, in the assay on M19-MEL melanoma, in the assay on OVCAR-3 ovarian, in the assay on RXF 393 renal and in the assay on SK-MEL-5 melanoma was greater than 68.1 µM throughout. Also, the TGI in the assay on SF-268 CNS and with NCI-H226 lung was greater than 68.1 µM each time.
Regarding `CC(=O)CCCCO`, the TGI in the assay on LXFL 529 NSCLC, in the assay on SK-MEL-28 melanoma, in the assay with M19-MEL melanoma, in the assay on OVCAR-3 ovarian, in the assay with RXF 393 renal and with SK-MEL-5 melanoma was greater than 100 µM in each case. The molecule further showed a TGI in the assay on SF-268 CNS greater than 100 µM.
For the molecule `COc1ccccc1NC(=O)C1=C(C)NC(C)=C(C(=O)Nc2ccccc2OC)C1c1ccc(C)cc1`, the TGI in the assay on LXFL 529 NSCLC, in the assay with SK-MEL-28 melanoma, in the assay on M19-MEL melanoma, in the assay with OVCAR-3 ovarian, in the assay on RXF 393 renal and in the assay with SK-MEL-5 melanoma was greater than 100 µM throughout. Moreover, the TGI with SF-268 CNS and in the assay on NCI-H226 lung was greater than 100 µM each time.
For the molecule `Fc1ccc(C2SCc3nc4ccccc4n32)cc1` (centres undefined), the TGI with LXFL 529 NSCLC is greater than 100 µM; with SK-MEL-28 melanoma it was 76.5 µM; in the assay with M19-MEL melanoma it was greater than 100 µM; in the assay on OVCAR-3 ovarian it was 77.6 µM; with RXF 393 renal it was 70.7 µM; in the assay on SK-MEL-5 melanoma, 38 µM. The TGI was greater than 100 µM with SF-268 CNS and 92.4 µM with NCI-H226 lung.
As to `O=C(CC(=O)N1N=C(N2c3ccccc3Sc3ccccc32)CC1c1ccccc1)Nc1ccc(Cl)cc1` (centres undefined), the TGI with LXFL 529 NSCLC, with SK-MEL-28 melanoma, in the assay with M19-MEL melanoma, with OVCAR-3 ovarian, with RXF 393 renal and in the assay with SK-MEL-5 melanoma was greater than 100 µM throughout. Further, in the assay with SF-268 CNS, the TGI was greater than 100 µM.
`NC(=O)C(c1ccccc1)N1CCOCC1` (centres undefined): the TGI in the assay on LXFL 529 NSCLC, in the assay on SK-MEL-28 melanoma, in the assay on M19-MEL melanoma, with OVCAR-3 ovarian, in the assay on RXF 393 renal and in the assay with SK-MEL-5 melanoma was greater than 100 µM in each case. The TGI with SF-268 CNS and with NCI-H226 lung was greater than 100 µM throughout.
Consider `CC(=O)OC1(C)C(=O)OC1(C)C(C)=O` (centres undefined), for which the TGI with LXFL 529 NSCLC, in the assay on SK-MEL-28 melanoma, in the assay on M19-MEL melanoma, in the assay with OVCAR-3 ovarian, with RXF 393 renal and in the assay with SK-MEL-5 melanoma was greater than 100 µM in each case. Besides, the TGI in the assay with SF-268 CNS and in the assay on NCI-H226 lung was greater than 100 µM throughout.
In the case of `O=C1C(=O)N(c2ccc(Cl)cc2Cl)C(=O)C(=O)C1c1nc2ccccc2o1`, the TGI in the assay with LXFL 529 NSCLC, with SK-MEL-28 melanoma, in the assay with M19-MEL melanoma, in the assay with OVCAR-3 ovarian, in the assay with SK-MEL-5 melanoma and in the assay on SF-268 CNS was greater than 100 µM throughout. The molecule further gave a TGI in the assay with NCI-H226 lung greater than 100 µM.
In the case of `c1ccc2c(c1)[nH]c1cnc3c4cccnc4[nH]c3c12`, the TGI with LXFL 529 NSCLC turned out to be 35.5 µM; with SK-MEL-28 melanoma, 38.4 µM; in the assay with M19-MEL melanoma it was 31.5 µM; in the assay on OVCAR-3 ovarian, 32.2 µM; in the assay on RXF 393 renal, 34.7 µM; in the assay with SK-MEL-5 melanoma it was 39.9 µM. Besides, the TGI in the assay with SF-268 CNS is 36.1 µM; with NCI-H226 lung it was 64 µM.
Consider `O=C1CN(C(=O)c2ccccc2)Cc2[nH]c3ccccc3c21`, for which the TGI in the assay with LXFL 529 NSCLC, in the assay on SK-MEL-28 melanoma, in the assay with M19-MEL melanoma, in the assay on OVCAR-3 ovarian, in the assay with RXF 393 renal and with SK-MEL-5 melanoma was greater than 100 µM throughout. In the assay with NCI-H226 lung, this molecule showed a TGI greater than 100 µM.
Consider `O=C(OCC1CO1)c1cccs1` (centres undefined), for which the TGI in the assay on LXFL 529 NSCLC, in the assay on SK-MEL-28 melanoma, in the assay on M19-MEL melanoma, with OVCAR-3 ovarian, in the assay on RXF 393 renal and in the assay on SK-MEL-5 melanoma was greater than 100 µM in each case. Moreover, the TGI with SF-268 CNS was greater than 100 µM.
In turn, `CCN(CCCl)CCCNc1c2ccccc2nc2ccc(OC)cc12` returned a TGI with LXFL 529 NSCLC of 1.7 µM. Also, the GI50 is 665 µM in the assay with SK-MEL-28 melanoma; 323 µM with M19-MEL melanoma; 119 µM with OVCAR-3 ovarian; 601 µM in the assay on RXF 393 renal; 626 µM in the assay with SK-MEL-5 melanoma; 254 µM in the assay with SF-268 CNS. Besides, the GI50 with NCI-H226 lung is 580 µM.
In the case of `C1OC1CO[C@@H]1CO[C@H]2[C@@H]1OC[C@H]2OCC1CO1` (some centres undefined), the TGI with SK-MEL-28 melanoma, in the assay on M19-MEL melanoma, with OVCAR-3 ovarian, in the assay on RXF 393 renal, in the assay with SK-MEL-5 melanoma and in the assay with SF-268 CNS was greater than 100 µM throughout. Besides, the TGI in the assay with NCI-H226 lung was greater than 100 µM.
On to `CCOC(=O)C1SC(=Nc2ccc(Cl)c(Cl)c2)N=C1C` (centres undefined), for which the TGI was greater than 100 µM in the assay on LXFL 529 NSCLC; greater than 100 µM in the assay on SK-MEL-28 melanoma; greater than 100 µM with M19-MEL melanoma; 60.6 µM in the assay on OVCAR-3 ovarian; 52.3 µM in the assay on RXF 393 renal; greater than 100 µM with SF-268 CNS. Further, the TGI with NCI-H226 lung was found to be 67.7 µM.
On to `Cc1cc(NS(=O)(=O)c2ccc(NC(=O)c3cccc4c(Nc5ccc(S(=O)(=O)N=C(N)N)cc5)c5ccccc5nc34)cc2)no1`, for which the TGI in the assay on LXFL 529 NSCLC, with SK-MEL-28 melanoma, in the assay on OVCAR-3 ovarian, in the assay on RXF 393 renal, with SK-MEL-5 melanoma and in the assay with SF-268 CNS was greater than 100 µM in each case. For the same molecule, the TGI in the assay on NCI-H226 lung is greater than 100 µM.
With `CC#CC1/C(=C\C(=O)OC)CCCC1O` (centres undefined), the TGI in the assay on SK-MEL-28 melanoma, in the assay on M19-MEL melanoma, in the assay on OVCAR-3 ovarian, in the assay on RXF 393 renal, in the assay with SK-MEL-5 melanoma and with SF-268 CNS was greater than 100 µM in each case. In the assay with NCI-H226 lung, this molecule showed a TGI greater than 100 µM.
As for `COc1ccc(/C=C/C(=O)Oc2cc(O)cc(O)c2)cc1`, the TGI in the assay with SK-MEL-28 melanoma was greater than 100 µM; in the assay on T-47D breast, greater than 100 µM; with OVCAR-3 ovarian, 32.1 µM; in the assay with RXF 393 renal it was greater than 100 µM; in the assay on NCI/ADR-RES ovarian, greater than 100 µM; in the assay on SK-MEL-5 melanoma, greater than 100 µM. Further, the TGI in the assay with SF-268 CNS was 86.5 µM; with NCI-H226 lung it was greater than 100 µM.

Values taken from PubChem BioAssay (NCI).
